The target in this experiment is T1, human recombinant HDAC6 (Homo sapiens, UniProt Q9UBN7).
T1 construct: purchased Calbiochem 382180
T1 sequence (Q9UBN7 1-1215): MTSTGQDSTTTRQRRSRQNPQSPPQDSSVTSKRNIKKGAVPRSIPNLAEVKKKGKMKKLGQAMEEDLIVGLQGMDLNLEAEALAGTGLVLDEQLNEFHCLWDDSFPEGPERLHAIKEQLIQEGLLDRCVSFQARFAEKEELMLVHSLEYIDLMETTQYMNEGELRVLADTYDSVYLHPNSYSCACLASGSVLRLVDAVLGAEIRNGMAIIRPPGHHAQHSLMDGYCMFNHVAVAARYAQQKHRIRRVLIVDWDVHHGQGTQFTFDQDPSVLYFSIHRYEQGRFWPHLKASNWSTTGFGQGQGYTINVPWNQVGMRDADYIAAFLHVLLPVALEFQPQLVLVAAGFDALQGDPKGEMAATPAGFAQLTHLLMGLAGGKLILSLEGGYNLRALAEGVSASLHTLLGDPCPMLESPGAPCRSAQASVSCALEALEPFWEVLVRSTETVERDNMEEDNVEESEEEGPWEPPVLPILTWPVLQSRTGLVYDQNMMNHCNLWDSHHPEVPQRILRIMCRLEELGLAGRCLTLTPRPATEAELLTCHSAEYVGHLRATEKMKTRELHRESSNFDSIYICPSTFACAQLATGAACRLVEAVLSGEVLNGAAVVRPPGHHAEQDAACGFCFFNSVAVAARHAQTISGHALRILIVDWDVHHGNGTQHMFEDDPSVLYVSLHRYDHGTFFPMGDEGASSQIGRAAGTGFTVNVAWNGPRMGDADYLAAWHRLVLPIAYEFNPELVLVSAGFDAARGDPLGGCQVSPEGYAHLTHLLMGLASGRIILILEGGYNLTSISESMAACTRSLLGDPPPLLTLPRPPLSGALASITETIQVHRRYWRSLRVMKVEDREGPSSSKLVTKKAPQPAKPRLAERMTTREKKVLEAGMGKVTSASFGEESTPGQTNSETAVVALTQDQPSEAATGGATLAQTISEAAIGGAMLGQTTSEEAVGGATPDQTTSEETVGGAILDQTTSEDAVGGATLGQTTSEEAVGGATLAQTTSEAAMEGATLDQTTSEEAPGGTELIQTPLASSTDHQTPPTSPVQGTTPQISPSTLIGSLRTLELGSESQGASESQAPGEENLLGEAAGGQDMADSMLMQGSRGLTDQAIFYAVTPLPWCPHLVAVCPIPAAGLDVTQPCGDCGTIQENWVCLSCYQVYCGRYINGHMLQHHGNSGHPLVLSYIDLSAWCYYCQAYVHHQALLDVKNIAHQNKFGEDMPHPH
The experiment is described as follows: HDAC6 enzyme activity inhibition assay (HDAC Fluorimetric Drug Discovery Kit). It is filed as biochemical. The following applies: for HDAC6 selectivity (fold): HDAC1 vs HDAC6; for IC50: same protocol as the HDAC1 enzyme activity test. The method in brief:
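5-fold compound dilutions + 0.3 μg enzyme + 10 μM Fluor de Lys-SIRT1 substrate, 60 min, 30° C; Developer II 30 min; fluorescence Ex 360/Em 460; IC50 by curve fit.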

The structures appear in SMILES notation.

Results on 22 compounds are retold here after US10538498B2, “1,3,4-oxadiazole sulfonamide derivative compounds as histone deacetylase 6 inhibitor, and the pharmaceutical composition comprising the same” (Chong Kun Dang Pharmaceutical Corp., priority 2015, dated 2020).

Usually IC50 stands for the concentration at which inhibition is half-maximal.

On to `CS(=O)(=O)N(Cc1ccc(-c2nnc(C(F)F)o2)cc1)c1ccccc1` [Compound 11168, N-(4-(5-(difluoromethyl)-1,3,4-oxadiazol-2-yl)benzyl)-N-phenylmethanesulfonamide], for which the “HDAC6 selectivity (fold)” value was 4348 fold and the IC50 was determined as 23 nM.
Take `CC(=O)N1Cc2ccc(N(Cc3ccc(-c4nnc(C(F)F)o4)cn3)S(C)(=O)=O)cc2C1` [Compound 11736, N-(2-acetylisoindolin-5-yl)-N-((5-(5-(difluoromethyl)-1,3,4-oxadiazol-2-yl)pyridin-2-yl)methyl)methanesulfonamide]: the “HDAC6 selectivity (fold)” value was 216 fold and the 50% inhibitory concentration (IC50) stood at 461 nM.
As to `CCC(=O)N1CC(N2CCC(S(=O)(=O)N(Cc3ccc(-c4nnc(C(F)F)o4)cn3)c3cccc(Cl)c3)CC2)C1` [Compound 11782, N-(3-chlorophenyl)-N-((5-(5-(difluoromethyl)-1,3,4-oxadiazol-2-yl)pyridin-2-yl)methyl)-1-(1-propionylazetidin-3-yl)piperidine-4-sulfonamide], the “HDAC6 selectivity (fold)” value came to 4032 fold and the IC50 came out at 24.8 nM.
For the compound `O=S(=O)(CCN1CCCCC1)N(Cc1ccc(-c2nnc(C(F)F)o2)cc1)c1ccccc1` [Compound 11629, N-(4-(5-(difluoromethyl)-1,3,4-oxadiazol-2-yl)benzyl)-N-phenyl-2-(piperidin-1-yl)ethane-1-sulfonamide], the “HDAC6 selectivity (fold)” value is 1041 fold and the IC50 turned out to be 96 nM.
For the compound `CS(=O)(=O)N(Cc1ccc(-c2nnc(C(F)F)o2)nc1)c1ccccc1` [Compound 11174, N-((6-(5-(difluoromethyl)-1,3,4-oxadiazol-2-yl)pyridin-3-yl)methyl)-N-phenylmethanesulfonamide], the “HDAC6 selectivity (fold)” value turned out to be 76 fold and the IC50 was determined as 1310 nM.
In the case of `COc1ccccc1N(Cc1ccc(-c2nnc(C(F)F)o2)cc1F)S(C)(=O)=O` [Compound 11251, N-(4-(5-(difluoromethyl)-1,3,4-oxadiazol-2-yl)-2-fluorobenzyl)-N-(2-methoxyphenyl)methanesulfonamide], the “HDAC6 selectivity (fold)” value is 1563 fold and the IC50 came out at 64 nM.
For `O=S(=O)(CCN1CCN(CCO)CC1)N(Cc1ccc(-c2nnc(C(F)F)o2)cc1)c1ccccc1` [Compound 11717, N-(4-(5-(difluoromethyl)-1,3,4-oxadiazol-2-yl)benzyl)-2-(4-(2-hydroxyethyl)piperazin-1-yl)-N-phenylethanesulfonamide], in that order: 879 fold and 114 nM.
For `NC(=O)[C@H]1CCCN1CCS(=O)(=O)N(Cc1ccc(-c2nnc(C(F)F)o2)cc1)c1ccccc1` [Compound 11813, (R)-1-(2-(N-(4-(5-(difluoromethyl)-1,3,4-oxadiazol-2-yl)benzyl)-N-phenylsulfamoyl)ethyl)pyrrolidine-2-carboxamide], in that order: 2932 fold and 34.1 nM.
Taken in the same sequence, the figures for `CS(=O)(=O)N(Cc1ccc(-c2nnc(C(F)F)o2)cn1)c1cccc(F)c1` [Compound 11217, N-((5-(5-(difluoromethyl)-1,3,4-oxadiazol-2-yl)pyridin-2-yl)methyl)-N-(3-fluorophenyl)methanesulfonamide] were 7692 fold and 13 nM.
`O=S(=O)(CCN1CCC(N2CCOCC2)CC1)N(Cc1ccc(-c2nnc(C(F)F)o2)cc1)c1ccccc1` [Compound 11763, N-(4-(5-(difluoromethyl)-1,3,4-oxadiazol-2-yl)benzyl)-2-(4-morpholinopiperidin-1-yl)-N-phenylethane-1-sulfonamide]: the “HDAC6 selectivity (fold)” value is 948 fold and the IC50 came out at 105 nM.
Turning to `O=S(=O)(c1cccnc1)N(Cc1ccc(-c2nnc(C(F)(F)F)o2)cc1F)c1cccc(C(F)(F)F)n1` [Compound 11253, N-(2-fluoro-4-(5-(trifluoromethyl)-1,3,4-oxadiazol-2-yl)benzyl)-N-(6-(trifluoromethyl)pyridin-2-yl)pyridine-3-sulfonamide], the “HDAC6 selectivity (fold)” value worked out at 150 fold and the IC50 worked out at 666 nM.
As to `CS(=O)(=O)N(Cc1ccc(-c2nnc(C(F)(F)F)o2)cc1F)c1cccc(F)c1` [Compound 11181, N-(2-fluoro-4-(5-(trifluoromethyl)-1,3,4-oxadiazol-2-yl)benzyl)-N-(3-fluorophenyl)methanesulfonamide], the “HDAC6 selectivity (fold)” value is listed as 3030 fold and the IC50 turned out to be 33 nM.
In the case of `CS(=O)(=O)N(Cc1ccc(-c2nnc(C(F)F)o2)cc1)c1nc2ccccc2s1` [Compound 11740, N-(benzo[d]thiazol-2-yl)-N-(4-(5-(difluoromethyl)-1,3,4-oxadiazol-2-yl)benzyl)methanesulfonamide], the “HDAC6 selectivity (fold)” value is recorded as 188 fold and the IC50 is 531 nM.
`CCN1CCC(S(=O)(=O)N(Cc2ccc(-c3nnc(C(F)F)o3)cc2F)c2ccccc2)CC1` [Compound 11373, N-(4-(5-(difluoromethyl)-1,3,4-oxadiazol-2-yl)-2-fluorobenzyl)-1-ethyl-N-phenylpiperidine-4-sulfonamide]: the “HDAC6 selectivity (fold)” value amounted to 10000 fold and the half-inhibitory concentration (IC50) amounted to 10 nM.
Taken in the same sequence, the figures for `COc1ccc(S(=O)(=O)NCc2ccc(-c3nnc(C(F)(F)F)o3)cc2)cc1` [Compound 11078, 4-methoxy-N-(4-(5-(trifluoromethyl)-1,3,4-oxadiazol-2-yl)benzyl)benzenesulfonamide] were 29 fold and 3470 nM.
As to `O=S(=O)(CCN1CCN(c2ccc(Cl)c(Cl)c2)CC1)N(Cc1ccc(-c2nnc(C(F)F)o2)cc1)c1ccccc1` [Compound 11770, 2-(4-(3,4-dichlorophenyl)piperazin-1-yl)-N-(4-(5-(difluoromethyl)-1,3,4-oxadiazol-2-yl)benzyl)-N-phenylethane-1-sulfonamide], the “HDAC6 selectivity (fold)” value amounted to 112 fold and the IC50 turned out to be 886 nM.
Consider `CS(=O)(=O)N(Cc1ccc(-c2nnc(C(F)F)o2)cc1F)c1ccc(Cl)cc1` [Compound 11281, N-(4-chlorophenyl)-N-(4-(5-(difluoromethyl)-1,3,4-oxadiazol-2-yl)-2-fluorobenzyl)methanesulfonamide], for which the “HDAC6 selectivity (fold)” value is 2273 fold and the IC50 came out at 44 nM.
Taken in the same sequence, the figures for `CS(=O)(=O)N(Cc1ccc(-c2nnc(C(F)(F)F)o2)cc1F)c1ccc(Cl)cc1` [Compound 11271, N-(4-chlorophenyl)-N-(2-fluoro-4-(5-(trifluoromethyl)-1,3,4-oxadiazol-2-yl)benzyl)methanesulfonamide] were 775 fold and 129 nM.
Consider `O=S(=O)(CCN1CCC[C@H]1CO)N(Cc1ccc(-c2nnc(C(F)F)o2)cc1)c1ccccc1` [Compound 11802, (S)—N-(4-(5-(difluoromethyl)-1,3,4-oxadiazol-2-yl)benzyl)-2-(2-(hydroxymethyl)pyrrolidin-1-yl)-N-phenylethane-1-sulfonamide], for which the “HDAC6 selectivity (fold)” value came out at 2849 fold and the IC50 is 35.1 nM.
For `CCS(=O)(=O)N(Cc1ccc(-c2nnc(C(F)F)o2)cc1F)c1cccc(CN2CCN(C(C)=O)CC2)c1` [Compound 11403, N-(3-((4-acetylpiperazin-1-yl)methyl)phenyl)-N-(4-(5-(difluoromethyl)-1,3,4-oxadiazol-2-yl)-2-fluorobenzyl)ethanesulfonamide], in that order: 1282 fold and 78 nM.
In the case of `CCS(=O)(=O)N(Cc1ccc(-c2nnc(C(F)F)o2)cn1)c1cccc(CN2CCN(C(C)=O)CC2)c1` [Compound 11388, N-(3-((4-acetylpiperazin-1-yl)methyl)phenyl)-N-((5-(5-(difluoromethyl)-1,3,4-oxadiazol-2-yl)pyridin-2-yl)methyl)ethanesulfonamide], the “HDAC6 selectivity (fold)” value came to 1333 fold and the IC50 was 75 nM.
`CS(=O)(=O)N(Cc1ccc(-c2nnc(C(F)F)o2)cn1)c1cccc(Cl)c1` [Compound 11352, N-(3-chlorophenyl)-N-((5-(5-(difluoromethyl)-1,3,4-oxadiazol-2-yl)pyridin-2-yl)methyl)methanesulfonamide]: the “HDAC6 selectivity (fold)” value amounted to 12500 fold and the IC50 came out at 8 nM.
